Measurements: patent US20220409526A1 (Retina Foundation Of The Southwest, priority 2019, published 2022)

Key:
Type in all cases: cell-based, human
ARPE-19 cells [1] = test: CellTiter-Glo assay (ATP); conditions: 1 mM pretreatment, then 500 μM HQ for 3, 6 and 8 hours
Procedure: ARPE-19 cells were grown in white 96 well plates. The cells were first exposed to 500 μM of HQ for 3, 6 and 8 hours and the amount of ATP produced was measured using the CellTiter-Glo assay kit to obtain a time dependent response (FIG. 15). […] Due to the mitochondrial damage caused by HQ, the production of ATP was decreased.

ARPE-19 cells [2] = test: in vitro; conditions: then 500 μM HQ for 16 hours
Procedure: ARPE-19 cells were grown in DMEM:F-12 supplemented with 10% fetal bovine serum (FBS). For all experiments these cells were split and grown in 6-well plates using MEM-Nic supplemented with 1% FBS according to a previously published procedure.^33 Cells used for all the experiments were between passages 25-30. For all experiments, the 96 well plates and 8-well slides were coated with 0.039 mg/mL collagen I at 6 μg/cm^2. The cells were seeded at a cell density of 70,000 cells/well and 150,000 cells/well using MEM-Nic media for 96 well plates and 8 well slides, respectively. Once the cells are confluent, media was replaced with MEM a, GlutaMAX™, supplemented with 1% FBS for 24 hours before carrying out assay protocols. Exposure to NAC alkyl-ester prodrugs were carried out in MEM a, GlutaMAX™, supplemented with 1% FBS and treatment with HQ was carried out in serum free DMEM:F-12.
ARPE-19 Cell viability assays were carried out using XTT/PMS reagent mixtures according to standard procedures known in the art (see Celis, J. E.; Carter, N., Cell Biology: A Laboratory Handbook. Elsevier Science: 2005). Corresponding absorbance readings were obtained using a plate reader at 450 and 660 nm.
A dose dependent study was first carried out for ARPE-19 cells using HQ concentrations varying from 100-1000 μM. Cells were then incubated at 37° C., 5% CO2 for 16 hours. HQ doses of less than 400 μM were non-lethal. Using 500 μM HQ for 16 hours gave a cell viability of ˜60%.
To evaluate the ability of the NAC alkyl-ester analogues to provide cellular protection against oxidative stress, cells were treated with 0.05 mM of NAC, NACME, NACEE, NACPE and NACBE for 2, 24 and 48 hours. Treated cells were then exposed to 500 μM HQ for 16 hours. HQ solutions were removed and replaced with DMEM:F-12 supplemented with 1% FBS, and followed by the addition of XTT (2,3-bis-(2-methoxy-4-nitro-5-sulfophenyl)-2H-tetrazolium-5-carboxanilide) and PMS (phenazine methyl sulfate).
To compare the effectiveness of NACBE and NAC in protecting against oxidative damage, another dose dependent study was carried out by varying the pretreatment concentration from 0.001 mM to 1.0 mM. […] Whereas for NAC, to reach the same cell viability, 0.5 mM concentration was needed (10× times that of NACBE).

ARPE-19 cells [3] = test: JC-1 assay (mitochondrial membrane potential); conditions: 1 mM pretreatment for 1 hour, then 50 μM HQ for 4 hours
Procedure: JC-1 assays measuring the change in mitochondrial membrane potential were carried out to evaluate the protection of the NAC alkyl-ester analogues towards mitochondrial damage.
Typically, JC-1 dye has an inherent green fluorescence at 530 nm. Upon reaching the cell, due to the structural properties of the dye, it will accumulate in the mitochondria making aggregates known as J-aggregates. These J-aggregates consists of a red shifted fluorescence (590 nm). Damaged or unhealthy mitochondria, due to their depolarized membrane potential (compared to healthy ones), will have lesser amounts of aggregates and thus will have low intensity of red emission. Cells with healthy mitochondria will have a more prominent red fluorescence than that in cells with damaged/unhealthy mitochondria due to the ability in forming J-aggregates.
ARPE-19 cells were grown in black, clear bottom 96 well plates. […] With increasing time and dose of HQ, a drop in 590 nm/530 nm fluorescence is seen due to the depolarization of the mitochondria.
Next, to assess the effect of NAC alkyl-ester analogues on oxidative damage in mitochondria (FIG. 12B), ARPE-19 cells were pretreated with 1 mM NAC, NAC alkyl-ester analogues, NACA, GSH-EE and 1 μM MitoQ for 1 and 24 hours. […] The JC-1 solution was removed and washed once with PBS and fluorescence measurements were obtained in PBS at 485 nm excitation and emission at 535 nm and 590 nm. […]

CCCCOC(=O)[C@H](CS)NC(C)=O [NACBE, N-acetylcysteine butyl ester]
ATP production after HQ insult (ARPE-19 cells [1]): ATP production remained unaltered | change in cell viability upon exposure to HQ (ARPE-19 cells [2]; 0.05 mM pretreatment for 24 and 48 hours, compared to NAC and the control): comparatively a higher cell viability | change in cell viability upon exposure to HQ (ARPE-19 cells [2]; 0.05 mM pretreatment for 2 hours): marginal effect | pretreatment concentration at which 100% cell viability was obtained (ARPE-19 cells [2]; pretreatment 0.001-1.0 mM for 24 hours): 0.05 mM | protection towards mitochondrial damage (JC-1) (ARPE-19 cells [3]): improved protection towards mitochondrial damage
